Assay results from ChEMBL document CHEMBL1126161, “3,4-Dihydroquinolin-2(1H)-ones as combined inhibitors of thromboxane A2 synthase and cAMP phosphodiesterase” (J Med Chem, 1992).
Where “and” joins values, the source holds several entries; their conditions need not be identical. Equal values may be shown once.

Experiments:
[1] = species on record: Homo sapiens; assay: In vitro inhibition of ADP-induced aggregation of human PRP in the presence of pig aortal microsomes (PAM).; assay type: functional
[2] = test system: Rattus norvegicus; assay: Antihypertensive activity in conscious spontaneously hypertensive rat (SHR), percent change in Systolic blood pressure (SBP) after 1 hr; assay type: functional; set-up: concentration or dose not given beside the values
[3] = test system: Rattus norvegicus; assay: Antihypertensive activity in conscious spontaneously hypertensive rat (SHR), percent change in Systolic blood pressure (SBP) after 4 hr at 10 mg/kg peroral dose; assay type: functional; details: route oral
[4] = test system: Rattus norvegicus; assay: Antihypertensive activity in conscious spontaneously hypertensive rat (SHR), percent change in heart rate (beats/min) after 2 hr at 10 mg/kg peroral dose; assay type: functional; details: route oral
[5] = species on record: Homo sapiens; assay: Inhibition of ADP-induced aggregation of human PRP in the absence of pig aortal microsomes (PAM); assay type: functional
[6] = test system: Rattus norvegicus; assay: Antihypertensive activity in conscious spontaneously hypertensive rat (SHR), percent change in heart rate (beats/min) after 4 hr at 10 mg/kg peroral dose; assay type: functional; details: route oral
[7] = test system: Rattus norvegicus; assay: Antihypertensive activity in conscious spontaneously hypertensive rat (SHR), percent change in heart rate (beats/min) after 1 hr at 10 mg/kg peroral dose; assay type: functional; details: route oral
[8] = test system: Rattus norvegicus; assay: Antihypertensive activity in conscious spontaneously hypertensive rat (SHR), percent change in Systolic blood pressure (SBP) after 2 hr at 10 mg/kg peroral dose; assay type: functional; details: route oral
[9] = species on record: Homo sapiens; assay: Ratio of IC50(w/oPAM)/IC50(w/PAM); assay type: functional
[10] = biological target: T1, Thromboxane-A synthase (Homo sapiens, UniProt P24557); assay: Compound was evaluated for the inhibition of human blood platelet, thromboxane A2 synthase
T1 sequence (P24557 whole entry): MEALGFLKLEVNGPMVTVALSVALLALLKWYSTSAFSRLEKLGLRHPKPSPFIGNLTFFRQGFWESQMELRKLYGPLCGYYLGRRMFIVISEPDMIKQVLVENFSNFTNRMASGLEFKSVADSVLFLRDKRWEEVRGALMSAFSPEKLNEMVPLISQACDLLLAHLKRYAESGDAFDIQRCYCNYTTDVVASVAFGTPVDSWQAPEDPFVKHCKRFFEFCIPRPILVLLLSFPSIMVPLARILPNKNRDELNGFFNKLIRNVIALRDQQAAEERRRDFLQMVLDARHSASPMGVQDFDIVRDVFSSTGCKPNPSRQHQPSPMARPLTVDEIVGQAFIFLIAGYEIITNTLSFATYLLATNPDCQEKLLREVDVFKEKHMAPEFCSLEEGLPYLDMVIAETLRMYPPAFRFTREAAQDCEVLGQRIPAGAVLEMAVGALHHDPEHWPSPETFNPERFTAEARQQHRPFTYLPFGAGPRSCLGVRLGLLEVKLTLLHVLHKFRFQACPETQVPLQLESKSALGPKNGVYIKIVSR

[11] = biological target: T1, Thromboxane-A synthase; assay: Compound was evaluated for the inhibition of human blood platelet thromboxane A2 synthase
[12] = biological target: Phosphodiesterase 3 (Homo sapiens, UniProt Q14432+Q13370); assay: Inhibition of human blood platelet c-AMP phosphodiesterase
[13] = test system: Mus musculus; assay: Protection against mortality in pulmonary thromboembolism model in mice at 12 mg/kg; assay type: functional
[14] = species on record: Homo sapiens; assay: Inhibition of ADP-induced platelet aggregation of human PRP in the presence of pig aortal microsomes (PAM); assay type: functional
[15] = species on record: Homo sapiens; assay: Inhibition of ADP-induced platelet aggregation of human PRP without pig aortal microsomes (PAM); assay type: functional
[16] = species on record: Mus musculus; assay: Time course of protection against mortality in a pulmonary thromboembolism model in mice after -1h; assay type: functional
[17] = test system: Mus musculus; assay: Protection against mortality in pulmonary thromboembolism model in mice at 30 mg/kg; assay type: functional
[18] = test system: Mus musculus; assay: Protection against mortality in pulmonary thromboembolism model in mice at 1 mg/kg; assay type: functional
[19] = test system: Mus musculus; assay: Protection against mortality in pulmonary thromboembolism model in mice at 3 mg/kg; assay type: functional
[20] = species on record: Mus musculus; assay: Time course of protection against mortality in a pulmonary thromboembolism model in mice after -7h; assay type: functional
[21] = species on record: Mus musculus; assay: Time course of protection against mortality in a pulmonary thromboembolism model in mice after -3h; assay type: functional
[22] = species on record: Mus musculus; assay: Time course of protection against mortality in a pulmonary thromboembolism model in mice after -5h; assay type: functional
[23] = test system: Mus musculus; assay: Protection against mortality in pulmonary thromboembolism model in mice at 9 mg/kg; assay type: functional
[24] = test system: Rattus norvegicus; assay: Effect of TXA2 synthase inhibitor (compound) on serum TXB2 level in rats at 50 mg/kg po, after 2 hr; assay type: functional
[25] = species on record: Homo sapiens; assay: (§1) Ratio of IC50(PDE)/IC50(TXA2); assay type: functional
[26] = species on record: Homo sapiens; assay: as §1

## CCCCC/C(=C\c1cccnc1)c1ccc2c(c1)CCC(=O)N2
[1]
  IC50: 58 µM

## O=C1CCc2cc(CCn3ccnc3)ccc2N1
[2]
  Change systolic BP: -14%
[3]
  Change systolic BP: -13%
[1]
  IC50: 8.3 µM
[4]
  Change in heart rate: 34%
[5]
  IC50: 140 µM
[6]
  Change in heart rate: 12%
[7]
  Change in heart rate: 17%
[8]
  Change systolic BP: -2%
[9]
  Ratio: 17

## O=C1CCc2cc(/C=C/c3cccnc3)ccc2N1
[2]
  Change systolic BP: -7%
[3]
  Change systolic BP: -12%
[1]
  IC50: 6.2 µM
[4]
  Change in heart rate: 23%
[5]
  IC50: 95 µM
[6]
  Change in heart rate: 32%
[7]
  Change in heart rate: 11%
[8]
  Change systolic BP: -7%
[9]
  Ratio: 15

## O=c1ccc2cc(/C=C/n3ccnc3)ccc2[nH]1
[10]
  IC50: 0.38 µM

## C/C(=C\c1cccnc1)c1ccc2c(c1)CCC(=O)N2
[2]
  Change systolic BP: -19% and -16%
[1]
  IC50: 2.2 µM
[4]
  Change in heart rate: 20%
[5]
  IC50: 90 µM
[6]; 10 mg/kg
  Change in heart rate: 12% and 25%
[8]
  Change systolic BP: -15%
[9]
  Ratio: 41

## CCCCCC(Cn1ccnc1)c1ccc2c(c1)CCC(=O)N2 (configuration not stated)
[1]
  IC50: 25 µM
[11]
  IC50: 25 µM
[12]
  IC50: 14 µM

## O=C1CCc2cc(C#Cc3cccnc3)ccc2N1
[2]
  Change systolic BP: -13%
[3]
  Change systolic BP: -5%
[1]
  IC50: 11 µM
[4]
  Change in heart rate: 15%
[5]
  IC50: 240 µM
[6]
  Change in heart rate: 22%
[7]
  Change in heart rate: 4%
[8]
  Change systolic BP: -6%
[9]
  Ratio: 22

## O=C1CCc2cc(CCc3cccnc3)ccc2N1
[1]
  IC50: 8.5 µM

## Cc1c(Cn2ccnc2)c2ccccc2n1CCC(=O)O [DAZMEGREL]
[13]
  survival at 12 mg/kg: 60%
[14]
  IC50: 2 µM
[15]
  IC50: 97 µM
[16]
  Survival: 11%
[17]
  survival at 30 mg/kg: 20%
[18]
  survival at 1 mg/kg: 30%
[19]
  survival at 3 mg/kg: 30%
[20]
  Survival: 10%
[21]
  Survival: 20%
[22]
  Survival: 0%
[23]
  survival at 9 mg/kg: 50%

## O=C1CCc2cc(-n3ccnc3)ccc2N1
[1]
  IC50: 2 µM
[24]
  inhibition in vivo at 50 mg/kg: 77%
[10]
  IC50: 2 µM
[25]
  Ratio: 8
[12]
  IC50: 16 µM
[5]
  IC50: 80 µM
[9]
  Ratio: 40

## CCCCCC(Cc1cccnc1)c1ccc2c(c1)CCC(=O)N2 (configuration not stated)
[1]
  IC50: 37 µM

## Oc1ccc2cc(/C=C/n3ccnc3)ccc2n1
[1]
  IC50: 0.38 µM
[25]
  Ratio: 10.5
[12]
  IC50: 4 µM
[5]
  IC50: 2.8 µM
[9]
  Ratio: 7.4

## CCCCCC(c1ccc2c(c1)CCC(=O)N2)n1ccnc1 (configuration not stated)
[1]
  IC50: 2.5 µM
[5]
  IC50: 37 µM

## O=C1CCc2cc(C(c3ccccc3)n3ccnc3)ccc2N1 (configuration not stated)
[1]
  IC50: 0.35 µM
[26]
  Ratio: 114
[10]
  IC50: 0.35 µM
[12]
  IC50: 40 µM
[18]
  survival at 1 mg/kg: 20%
[19]
  survival at 3 mg/kg: 20%
[5]
  IC50: 44 µM
[23]
  survival at 9 mg/kg: 40%

## O=C1CCc2cc(C#CCn3ccnc3)ccc2N1
[2]
  Change systolic BP: -3%
[3]
  Change systolic BP: -15%
[4]
  Change in heart rate: 11%
[6]
  Change in heart rate: 11%
[7]
  Change in heart rate: 9%
[8]
  Change systolic BP: -5%

## O=C1CCc2cc(/C(=C/n3ccnc3)c3ccccc3)ccc2N1
[1]
  IC50: 28 µM
[5]
  IC50: 270 µM
[9]
  Ratio: 9.6

## CC(Cn1ccnc1)c1ccc2c(c1)CCC(=O)N2 (configuration not stated)
[1]
  IC50: 5.5 µM
[5]
  IC50: 350 µM
[9]
  Ratio: 64

## O=C1CCc2cc(/C=C/Cn3ccnc3)ccc2N1
[2]
  Change systolic BP: -19%
[3]
  Change systolic BP: 5%
[1]
  IC50: 1.7 µM
[24]
  inhibition in vivo at 50 mg/kg: -28%
[4]
  Change in heart rate: 15%
[5]
  IC50: 160 µM
[6]
  Change in heart rate: 14%
[7]
  Change in heart rate: 15%
[8]
  Change systolic BP: -17%
[9]
  Ratio: 94

## C/C(=C\n1ccnc1)c1ccc2c(c1)CCC(=O)N2
[1]
  IC50: 1.6 µM
[5]
  IC50: 13 µM
[9]
  Ratio: 8.1

## CC(Cc1cccnc1)c1ccc2c(c1)CCC(=O)N2 (configuration not stated)
[1]
  IC50: 35 µM

## O=C1CCc2cc(C(c3ccccc3)c3cccnc3)ccc2N1 (configuration not stated)
[1]
  IC50: 3 µM
[5]
  IC50: 11 µM

## O=C1CCc2cc(C(Cn3ccnc3)c3ccccc3)ccc2N1 (configuration not stated)
[1]
  IC50: 200 µM

## O=C1CCc2cc(/C(=C/c3cccnc3)c3ccccc3)ccc2N1
[1]
  IC50: 170 µM

## C=C(Cn1ccnc1)c1ccc2c(c1)CCC(=O)N2
[1]
  IC50: 7.6 µM
[5]
  IC50: 74 µM
[9]
  Ratio: 9.7
